Experimental data reported in US20230279001A1, “IMIDAZO[1,2-A]PYRIDINE COMPOUNDS FOR THE TREATMENT OF AUTOIMMUNE DISEASE” (Hoffmann-La Roche Inc., priority 2020, published 2023).

Key:
[1] = target: human TLR8 (Homo sapiens (Human), UniProt Q9NR97); assay: HEK293-Blue-hTLR-8 cells assay; type: cell-based; settings: HEK293-Blue-hTLR8 cells, R848 stimulation, 20 hrs, SEAP reporter; read-out: HEK/hTLR8 IC50
Excerpt: A stable HEK293-Blue-hTLR-8 cell line was purchased from InvivoGen (Cat. #: hkb-htlr8, San Diego, Calif., USA). These cells were originally designed for studying the stimulation of human TLR8 by monitoring the activation of NF-κB. A SEAP (secreted embryonic alkaline phosphatase) reporter gene was placed under the control of the IFN-β minimal promoter fused to five NF-κB and AP-1-binding sites. The SEAP was induced by activating NF-κB and AP-1 via stimulating HEK-Blue hTLR8 cells with TLR8 ligands. Therefore the reporter expression was declined by TLR8 antagonist under the stimulation of a ligand, such as R848, for incubation of 20 hrs. The cell culture supernatant SEAP reporter activity was determined using QUANTI-Blue™ kit (Cat. #: rep-gb1, Invivogen, San Diego, Ca, USA) at a wavelength of 640 nm, a detection medium that turns purple or blue in the presence of alkaline phosphatase.
HEK293-Blue-hTLR8 cells were incubated at a density of 250,000˜450,000 cells/mL in a volume of 170 μL in a 96-well plate in Dulbecco's Modified Eagle's medium (DMEM) containing 4.5 g/L glucose, 50 U/mL penicillin, […], […], 2 mM L-glutamine, 10% (v/v) heat-inactivated fetal bovine serum with addition of 20 μL test compound in a serial dilution in the presence of final DMSO at 1% and 10 μL of 60 uM R848 in above DMEM, perform incubation under 37° C. in a CO2 incubator for 20 hrs. Then 20 μL of the supernatant from each well was incubated with 180 μL Quanti-blue substrate solution at 37° C. for 2 hrs and the absorbance was read at 620655 nm using a spectrophotometer. The signaling pathway that TLR8 activation leads to downstream NF-κB activation has been widely accepted, and therefore similar reporter assay was modified for evaluating TLR8 antagonist.

[2] = Parallel Artificial Membrane Permeability Assay (PAMPA); type: in vitro ADME; settings: for Membrane Retention / Papp at 4 h: PAMPA, pH 7.40, 4 hours; for Papp at 4 h: pH 7.4, room temperature, read-out: PAMPA Pe; for PAMPA category: classified by Pe and membrane retention
Experimental: PAMPA (Parallel Artificial Membrane Permeability Assay) is a first-line permeability screen for drug candidates. This assay mimics the transcellular absorption conditions using an artificial phospholipid membrane and generates a permeability value that can be used for compound ranking and optimization as well as input parameters for in silico models to predict intestinal absorption.
Permeation experiments are carried out in hydrophobic PVDF 96-well microtiter filter plates (MultiScreen Filter Plate, Millipore, #MAIPN4550). Each well is coated with PVDF membrane, which is prepared with 5 μL Dodecane (Sigma, D221104) that contains 1% lecithin (Sigma, P3556-1G).
The typical PAMPA experimental protocol is as follows: The donor plate is placed on a Teflon acceptor plate that has been pre-filled with […] of 100 mM PBS buffer (2.6 g KH2PO4 and 18.5 g K2HPO4·3H2O are dissolved in about 1000 mL of ultra-pure water and mixed thoroughly. The pH is adjusted to 7.40±0.05, using either 1 M sodium hydroxide or 1M hydrochloric acid) containing 5% DMSO. The filter on the bottom of each acceptor well is filled with 300 μL of 100 mM PBS buffer (2.6 g KH2PO4 and 18.5 g K2HPO4·3H2O are dissolved in about 1000 mL of ultra-pure water, mixed thoroughly. The pH was adjusted to 7.40±0.05, using either 1 M sodium hydroxide or 1M hydrochloric acid). The resulting sandwich is incubated at room temperature under constant shaking (300 rpm) for 4 hours. The sandwich is then disassembled. Before incubation, spike 20 μL dosing solution and mix with 250 μL PBS and 130 μL quench solution (acetonitrile) as TO sample. After incubation, collect 270 μL solutions from acceptor chamber, followed by the addition of 130 μL acetonitrile. Collect 20 μL solution from donor chamber and add 250 μL PBS and 130 μL acetonitrile. The concentration of compound in all samples are determined by LC-MS/MS and the equations for determining the permeability (Pe, 10^−6 cm/s) are as follows.
VD is the volume of the donor well; VR is the volume of the acceptor well; Area is the active surface area of membrane; Time is the incubation time (14,400 s in this assay); CR and CD are the concentrations of compound in acceptor and donor solutions, respectively, at the completion of the assay; C0 is the concentration of compound in donor solution before incubation.
The main readout of the PAMPA assay is the permeability value Pe expressed in 10^−6 cm/s. Secondary readouts determined are the amounts of compound in the donor and acceptor compartments as well as compound retention in the membrane. Depending on the permeation rate and the membrane retention, compounds are classified as “low” (Pe<0.2 and membrane retention<20%) or “medium & high” (Pe>=0.2; or Pe<0.2 and membrane retention>=20%). Each sample is measured in triplicate; the standard deviation is determined for the permeation constant Pe.

human TLR8, sequence (Q9NR97 27-1041): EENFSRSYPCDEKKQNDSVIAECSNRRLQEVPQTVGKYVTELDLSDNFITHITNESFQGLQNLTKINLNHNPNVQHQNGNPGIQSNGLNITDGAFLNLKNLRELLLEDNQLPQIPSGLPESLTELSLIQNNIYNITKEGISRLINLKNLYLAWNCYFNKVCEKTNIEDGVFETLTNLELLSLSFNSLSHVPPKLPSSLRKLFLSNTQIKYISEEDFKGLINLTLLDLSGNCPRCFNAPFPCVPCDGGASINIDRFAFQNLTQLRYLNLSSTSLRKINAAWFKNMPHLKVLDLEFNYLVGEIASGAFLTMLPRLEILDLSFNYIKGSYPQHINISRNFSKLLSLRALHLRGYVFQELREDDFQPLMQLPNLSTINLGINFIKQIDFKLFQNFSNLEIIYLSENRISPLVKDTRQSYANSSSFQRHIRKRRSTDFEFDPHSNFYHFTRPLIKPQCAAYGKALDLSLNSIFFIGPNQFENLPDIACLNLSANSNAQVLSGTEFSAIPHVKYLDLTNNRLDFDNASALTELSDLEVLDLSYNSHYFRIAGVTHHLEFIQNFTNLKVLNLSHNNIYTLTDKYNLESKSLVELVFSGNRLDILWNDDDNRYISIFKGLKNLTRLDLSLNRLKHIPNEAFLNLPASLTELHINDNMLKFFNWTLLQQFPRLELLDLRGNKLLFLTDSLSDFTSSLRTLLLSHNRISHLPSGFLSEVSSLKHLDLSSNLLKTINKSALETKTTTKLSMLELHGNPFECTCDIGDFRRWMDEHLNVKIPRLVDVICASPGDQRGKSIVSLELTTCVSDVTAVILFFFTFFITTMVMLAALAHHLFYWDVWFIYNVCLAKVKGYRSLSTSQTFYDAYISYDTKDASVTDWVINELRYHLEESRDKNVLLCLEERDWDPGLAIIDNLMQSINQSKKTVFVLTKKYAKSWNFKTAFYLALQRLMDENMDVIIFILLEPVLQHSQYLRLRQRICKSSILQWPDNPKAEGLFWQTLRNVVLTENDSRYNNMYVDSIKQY

Row | IC50 [1] [nM] | Membrane Retention [2] [%] | Papp at 4 h [2] [×10⁻⁶ cm/s] | SMILES | PAMPA category [2]
1 | 1.3 | 22.73 | 0.87 | Cc1cc(-c2ccc(N3CCC(N4CCNCC4)CC3)nc2C(C)C)cn2ccnc12 [Example 2, 6-[2-isopropyl-6-(4-piperazin-1-yl-1-piperidyl)-3-pyridyl]-8-methyl-imidazo[1,2-a]pyridine] | medium & high (“medium & high” (Pe>=0.2; or Pe<0.2 and membrane retention>=20%))
2 | 1.2 | 20.3 | 0.8 | Cc1cn2cc(-c3ccc(N4CCC(N5CCNCC5)CC4)nc3C(C)C)cc(C)c2n1 [Example 3, 6-[2-isopropyl-6-(4-piperazin-1-yl-1-piperidyl)-3-pyridyl]-2,8-dimethyl-imidazo[1,2-a]pyridine] | medium & high (“medium & high” (Pe>=0.2; or Pe<0.2 and membrane retention>=20%))
3 | 2.9 | 17.52 | 1.2 | Cc1cn2cc(-c3ccc(N4CCC(N)CC4)nc3C(C)C)cc(C)c2n1 [Example 4, 1-[5-(2,8-dimethylimidazo[1,2-a]pyridin-6-yl)-6-isopropyl-2-pyridyl]piperidin-4-amine] | medium & high (“medium & high” (Pe>=0.2; or Pe<0.2 and membrane retention>=20%))
4 | 30.4 | 17.82 | 2.1 | Cc1cn2cc(-c3ccc(N4CCNC[C@H]4CO)nc3C(C)C)cc(C)c2n1 [Example 5, [(2S)-1-[5-(2,8-dimethylimidazo[1,2-a]pyridin-6-yl)-6-isopropyl-2-pyridyl]piperazin-2-yl]methanol] | medium & high (“medium & high” (Pe>=0.2; or Pe<0.2 and membrane retention>=20%))
5 | 8.6 | 20.4 | 1.2 | Cc1c(-c2ccc(N3CCC(N4CCNCC4)CC3)nc2C(C)C)cn2ccnc2c1C [Example 7, 6-[2-isopropyl-6-(4-piperazin-1-yl-1-piperidyl)-3-pyridyl]-7,8-dimethyl-imidazo[1,2-a]pyridine] | medium & high (“medium & high” (Pe>=0.2; or Pe<0.2 and membrane retention>=20%))
6 | 2.3 | 34.49 | 0.85 | Cc1cn2cc(-c3ccc(N4CCN5CCNCC5C4)nc3C(C)C)cc(C)c2n1 (centres unmarked) [Example 8, 2-[5-(2,8-dimethylimidazo[1,2-a]pyridin-6-yl)-6-isopropyl-2-pyridyl]-1,3,4,6,7,8,9,9a-octahydropyrazino[1,2-a]pyrazine] | medium & high (“medium & high” (Pe>=0.2; or Pe<0.2 and membrane retention>=20%))
7 | 10.7 | 49 | 0.88 | Cc1cc(-c2cc(C)c3nccn3c2)cnc1N1CCC(N2CCN(C)CC2)CC1 [Example 9, 8-methyl-6-[5-methyl-6-[4-(4-methylpiperazin-1-yl)-1-piperidyl]-3-pyridyl]imidazo[1,2-a]pyridine] | medium & high (“medium & high” (Pe>=0.2; or Pe<0.2 and membrane retention>=20%))
8 | 2.8 | 17.7 | 0.81 | Cc1cc(-c2ccc(N3CCC(N4CCNCC4)CC3)nc2C(F)F)cn2ccnc12 [Example 10, 6-[2-(difluoromethyl)-6-(4-piperazin-1-yl-1-piperidyl)-3-pyridyl]-8-methyl-imidazo[1,2-a]pyridine] | medium & high (“medium & high” (Pe>=0.2; or Pe<0.2 and membrane retention>=20%))
9 | 16.8 | 9.47 | 0.84 | Cc1cn2cc(-c3ccc(N4CCC(N5CCNCC5)CC4)nc3C(F)F)cc(C)c2n1 [Example 11, 6-[2-(difluoromethyl)-6-(4-piperazin-1-yl-1-piperidyl)-3-pyridyl]-2,8-dimethyl-imidazo[1,2-a]pyridine] | medium & high (“medium & high” (Pe>=0.2; or Pe<0.2 and membrane retention>=20%))
10 | 1.1 | 7.03 | 1 | Cc1cn2cc(-c3ccc(N4CCC(N5CC(C)(N)C5)CC4)nc3C(F)F)cc(C)c2n1 [Example 12, 1-[1-[6-(difluoromethyl)-5-(2,8-dimethylimidazo[1,2-a]pyridin-6-yl)-2-pyridyl]-4-piperidyl]-3-methyl-azetidin-3-amine] | medium & high (“medium & high” (Pe>=0.2; or Pe<0.2 and membrane retention>=20%))
11 | 0.4 | – | – | CCc1nc(N2CCC(N3CC4(CNCCO4)C3)CC2)ccc1-c1cc(C)c2nccn2c1 [Example 14, 2-[1-[6-ethyl-5-(8-methylimidazo[1,2-a]pyridin-6-yl)-2-pyridyl]-4-piperidyl]-5-oxa-2,8-diazaspiro[3.5]nonane] | –
12 | 0.3 | – | – | CCc1nc(N2CCC(N3C[C@@H](N)[C@H](OC)C3)CC2)ccc1-c1cc(C)c2nccn2c1 [Example 15, (3R,4R)-1-[1-[6-ethyl-5-(8-methylimidazo[1,2-a]pyridin-6-yl)-2-pyridyl]-4-piperidyl]-4-methoxy-pyrrolidin-3-amine] | –
13 | 1 | – | – | CCc1nc(N2CCC(N3C[C@@H](N)[C@H](OC)C3)CC2)ccc1-c1cc(C)c2nc(C)cn2c1 [Example 17, (3R,4R)-1-[1-[5-(2,8-dimethylimidazo[1,2-a]pyridin-6-yl)-6-ethyl-2-pyridyl]-4-piperidyl]-4-methoxy-pyrrolidin-3-amine] | –
14 | 41.8 | – | – | CCc1nc(N2CCC(C)(N)CC2)ccc1-c1cc(C)c2nc(C)cn2c1 [Example 20, 1-[5-(2,8-dimethylimidazo[1,2-a]pyridin-6-yl)-6-ethyl-2-pyridyl]-4-methyl-piperidin-4-amine] | –
15 | 3.6 | 28 | 0.73 | CCc1nc(N2CCC(N3CCNCC3)CC2)ccc1-c1cc(C)c2nc(C)cn2c1 [Example 21, 6-[2-ethyl-6-(4-piperazin-1-yl-1-piperidyl)-3-pyridyl]-2,8-dimethyl-imidazo[1,2-a]pyridine] | medium & high (“medium & high” (Pe>=0.2; or Pe<0.2 and membrane retention>=20%))
16 | 40 | 26.45 | 0.5 | CCc1cc(-c2cc(C)c3nccn3c2)cnc1N1CCC2(CCNCC2)CC1 [Example 22, 3-[3-ethyl-5-(8-methylimidazo[1,2-a]pyridin-6-yl)-2-pyridyl]-3,9-diazaspiro[5.5]undecane] | medium & high (“medium & high” (Pe>=0.2; or Pe<0.2 and membrane retention>=20%))
17 | 11.2 | – | – | COc1nc(N2CCC(N3CCNCC3)CC2)ccc1-c1cc(C)c2nccn2c1 [Example 25, 6-[2-methoxy-6-(4-piperazin-1-yl-1-piperidyl)-3-pyridyl]-8-methyl-imidazo[1,2-a]pyridine] | –
